What was measured:
[1] = test system: OVA sensitized and challenged wild type mice; assay: OVA sensitization and challenge model of Th2 inflammation; type: in vivo; settings: for antigen-stimulated IL-4 production / antigen-stimulated IL-13 production: BAL from OVA sensitized and challenged mice, antagonist IP; for onset of a Th2 mediated inflammatory disease: disease induced by allergen (ovalbumin sensitization) or genetic predisposition, summary statement; for airways hyperresponsiveness (AHR), methacholine responsiveness / BAL and tissue inflammation: wild type mice sensitized and challenged with OVA, SU1498 10 mg/kg/day or VEGF TrapR1R2 25 mg/kg, IP; for BAL and tissue inflammation: starting the day before first OVA dose
Procedure: The OVA model was undertaken in wild type mice as previously described (Wang et al., 2000). Sensitization and challenge were undertaken in the presence and absence of the VEGF receptor antagonist SU1498 (10 mg/kg/day) or VEGF TrapR1R2 (Regeneron, Inc., Tarrytown, N.Y.) (25 mg/kg) which were given via an intraperitoneal (IP) route starting the day before the first dose of OVA. The VEGF TrapR1R2 is a fusion protein comprised of the extracellular domains of VEGFR1 and VEGFR2 coupled to the Fc-portion of IgG that binds VEGF-A, but not VEGF-B or VEGF-C (Cursiefen et al., 2004). T-bet null mutant mice (Finotto et al., 2002) were obtained from the Jackson Laboratories (Bar Harbor, Me.). At 6 weeks of age they were randomized to SU1498 or control vehicle as described above. Two weeks later phenotypic characterization was undertaken as described above.

VEGF-A = target: T1, VEGF-A (Homo sapiens, UniProt P15692); settings: cited from earlier work
T1 sequence (P15692 207-320 limits assumed): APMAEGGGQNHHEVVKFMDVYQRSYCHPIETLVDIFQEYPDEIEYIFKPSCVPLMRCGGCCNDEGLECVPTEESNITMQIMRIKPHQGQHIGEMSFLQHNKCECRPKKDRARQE

VEGF-C = target: T2, VEGF-C (Homo sapiens, UniProt P49767); settings: cited from earlier work
T2 sequence (P49767 112-227 limits assumed): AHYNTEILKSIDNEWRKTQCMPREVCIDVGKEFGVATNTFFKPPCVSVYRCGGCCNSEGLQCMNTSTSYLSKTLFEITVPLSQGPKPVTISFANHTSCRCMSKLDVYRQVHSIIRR

VEGF-B = target: T3, VEGF-B (Homo sapiens, UniProt P49765); settings: cited from earlier work
T3 sequence (P49765 22-136 limits assumed): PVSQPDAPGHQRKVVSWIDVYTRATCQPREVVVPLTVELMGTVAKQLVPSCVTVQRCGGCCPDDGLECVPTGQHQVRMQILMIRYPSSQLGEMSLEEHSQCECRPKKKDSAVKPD

With `CC(C)c1cc(/C=C(\C#N)C(=O)NCCCc2ccccc2)cc(C(C)C)c1O` [SU1498, reference compound] the “antigen-stimulated IL-4 production” value [1] was “markedly decreased”, the “antigen-stimulated IL-13 production” value [1] was “markedly decreased” and the “onset of a Th2 mediated inflammatory disease” value [1] was “prevented onset”. For the same compound, the “airways hyperresponsiveness (AHR), methacholine responsiveness” value [1] was “markedly decreased” and the “BAL and tissue inflammation” value [1] was “markedly decreased”.

For “VEGF TrapR1R2: fusion protein comprised of the extracellular domains of VEGFR1 and VEGFR2 coupled to the Fc-portion of IgG (Regeneron)”, the “binding to VEGF-A” value (VEGF-A) is given as “binds”, the “binding to VEGF-C” value (VEGF-C) is given as “not” and the “binding to VEGF-B” value (VEGF-B) is given as “not”. The “antigen-stimulated IL-4 production” value [1] was “markedly decreased”, the “antigen-stimulated IL-13 production” value [1] was “markedly decreased” and the “onset of a Th2 mediated inflammatory disease” value [1] was “prevented onset”. The “airways hyperresponsiveness (AHR), methacholine responsiveness” value [1] was “abrogates” and the “BAL and tissue inflammation” value [1] was “abrogates”.
